Measured values published in patent US11932636B2, “RAD51 inhibitors” (Cyteir Therapeutics, Inc., priority 2019, dated 2024).

System: Daudi cells (AID positive)
Experiment: Compound primary screening: cell death in AID positive Daudi cells (Cell-Titer Glo, Day 7)
Type: cell-based
Settings: Homo sapiens, 168 h; Daudi cells, AID positive; cell death on Day 7, Cell-Titer Glo; read-out: Cellular activity in AID + (Daudi)
In short: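 AID-positive Daudi cells were seeded at 1250 cells per well and treated with serially diluted compound delivered from a DMSO/media master plate. Cultures were incubated at 37 °C, and cell death was measured on Day 7 with Cell-Titer Glo luminescence.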

| SMILES | EC50 |
| --- | --- |
| CCNS(=O)(=O)c1cc(Nc2nccn2C(C)C)ccc1-c1cnc([C@H]2CC[C@H](NC(=O)OC(C)C)CC2)s1 [Compound 154, isopropyl trans-N-[4-[5-[2-(ethylsulfamoyl)-4-[(1-isopropylimidazol-2-yl)amino]phenyl]thiazol-2-yl]cyclohexyl]carbamate] | < 100 nM |
| CCNS(=O)(=O)c1cc(Nc2cncn2C(C)C)ccc1-c1cnc([C@H]2CC[C@H](NC(=O)OC(C)C)CC2)s1 [Compound 138, isopropyl trans-N-[4-[5-[2-(ethylsulfamoyl)-4-[(3-isopropylimidazol-4-yl)amino]phenyl]thiazol-2-yl]cyclohexyl]carbamate] | 100 to 1000 nM |
| CCNS(=O)(=O)c1cc(-c2ncc[nH]2)ccc1-c1cnc([C@H]2CC[C@H](NC(=O)OC(C)C)CC2)s1 [Compound 75, isopropyl trans-N-[4-[5-[2-(ethylsulfamoyl)-4-(1H-imidazol-2-yl)phenyl]thiazol-2-yl]cyclohexyl]carbamate] | 1000 to 10000 nM |
| CC(C)OC(=O)N[C@H]1CC[C@H](c2ncc(-c3ccc(Nc4ncco4)cc3S(=O)(=O)N3CCCC3)s2)CC1 [Compound 153, isopropyl trans-[4-[5-[4-(oxazol-2-ylamino)-2-pyrrolidin-1-ylsulfonyl-phenyl]thiazol-2-yl]cyclohexyl]carbamate] | < 100 nM |
| CCNS(=O)(=O)c1cc(Nc2nccn2C)ccc1-c1cnc([C@H]2CC[C@H](NC(=O)OC(C)C)CC2)s1 [Compound 105, isopropyl trans-N-[4-[5-[2-(ethylsulfamoyl)-4-[(1-methylimidazol-2-yl)amino]phenyl]thiazol-2-yl]cyclohexyl]carbamate] | < 100 nM |
| CC(=O)NCc1ccc(-c2cnc([C@H]3CC[C@H](NC(=O)OC(C)C)CC3)s2)c(S(=O)(=O)NC(C)(C)C)c1 [Compound 2, isopropyl (trans-4-(5-(4-(acetamidomethyl)-2-(N-(tert-butyl)sulfamoyl)phenyl)thiazol-2-yl)cyclohexyl)carbamate] | > 10000 nM |
| CC(C)OC(=O)N[C@H]1CC[C@H](c2ncc(-c3ccc(Nc4ncc[nH]4)cc3S(N)(=O)=O)s2)CC1 [Compound 90, isopropyl trans-N-[4-[5-[4-(1H-imidazol-2-ylamino)-2-sulfamoyl-phenyl]thiazol-2-yl]cyclohexyl]carbamate] | 100 to 1000 nM |
| CCNS(=O)(=O)c1cc(CC(=O)N2CCCCC2)ccc1-c1cnc([C@H]2CC[C@H](NC(=O)OC(C)C)CC2)s1 [Compound 83, isopropyl trans-N-[4-[5-[4-[2-oxo-2-(piperidin-1-yl)ethyl]-2-(ethyl-sulfamoyl)phenyl]thiazol-2-yl]cyclohexyl]carbamate] | 100 to 1000 nM |
| CCNS(=O)(=O)c1cc(Nc2ccnn2C(C)C)ccc1-c1cnc([C@H]2CC[C@H](NC(=O)OC(C)C)CC2)s1 [Compound 129, isopropyl trans-N-[4-[5-[2-(ethylsulfamoyl)-4-[(1-isopropyl-1H-pyrazol-5-yl)amino]phenyl]thiazol-2-yl]cyclohexyl]carbamate] | < 100 nM |
| CCNS(=O)(=O)c1cc(Nc2ccc(=O)n(C)n2)ccc1-c1cnc([C@H]2CC[C@H](NC(=O)OC(C)C)CC2)s1 [Compound 172, isopropyl trans-N-[4-[5-[2-(ethylsulfamoyl)-4-[(1-methyl-6-oxo-pyridazin-3-yl)amino]phenyl]thiazol-2-yl]cyclohexyl]carbamate] | 100 to 1000 nM |
| CC(C)OC(=O)N[C@H]1CC[C@H](c2ncc(-c3ccc(-c4cccnc4)cc3S(=O)(=O)NC(C)(C)C)s2)CC1 [Compound 5, isopropyl (trans-4-(5-(2-(N-(tert-butyl)sulfamoyl)-4-(pyridin-3-yl)phenyl)thiazol-2-yl)cyclohexyl)carbamate] | 1000 to 10000 nM |
| CCNS(=O)(=O)c1cc(Nc2cn[nH]c2)ccc1-c1cnc([C@H]2CC[C@H](NC(=O)OC)CC2)s1 [Compound 166, methyl trans-N-[4-[5-[2-(ethylsulfamoyl)-4-[(1H-pyrazol-4-yl)amino]phenyl]thiazol-2-yl]cyclohexyl]carbamate] | 1000 to 10000 nM |
| CCNS(=O)(=O)c1cc(Nc2ccc(C)nn2)ccc1-c1cnc([C@H]2CC[C@H](NC(=O)OC(C)C)CC2)s1 [Compound 162, isopropyl trans-N-[4-[5-[2-(ethylsulfamoyl)-4-[(6-methylpyridazin-3-yl)amino]phenyl]thiazol-2-yl]cyclohexyl]carbamate] | < 100 nM |
| CCNS(=O)(=O)c1cc(Nc2cc(C)cnn2)ccc1-c1cnc([C@H]2CC[C@H](NC(=O)OC(C)C)CC2)s1 [Compound 161, isopropyl trans-N-[4-[5-[2-(ethylsulfamoyl)-4-[(5-methylpyridazin-3-yl)amino]phenyl]thiazol-2-yl]cyclohexyl]carbamate] | < 100 nM |
| CCNS(=O)(=O)c1cc(CC(=O)N2CCC2)ccc1-c1cnc([C@H]2CC[C@H](NC(=O)OC(C)C)CC2)s1 [Compound 87, isopropyl trans-N-[4-[5-[4-[2-oxo-2-(azetidin-1-yl)ethyl]-2-(ethyl-sulfamoyl)phenyl]thiazol-2-yl]cyclohexyl]carbamate] | 100 to 1000 nM |
| CCNS(=O)(=O)c1cc(NC2COC2)ccc1-c1cnc([C@H]2CC[C@H](NC(=O)OC(C)C)CC2)s1 [Compound 137, isopropyl trans-N-[4-[5-[2-(ethylsulfamoyl)-4-[(oxetan-3-yl)amino]phenyl]thiazol-2-yl]cyclohexyl]carbamate] | < 100 nM |
| CC(C)OC(=O)N[C@H]1CC[C@H](c2ncc(-c3ccc(OCCNC(=O)OC(C)(C)C)cc3S(=O)(=O)NC(C)(C)C)s2)CC1 [Compound 25, isopropyl N-[trans-4-[5-[4-[2-(tert-butoxycarbonylamino)ethoxy]-2-(tert-butylsulfamoyl)phenyl]thiazol-2-yl]cyclohexyl]carbamate] | 1000 to 10000 nM |
| CC(C)OC(=O)N[C@H]1CC[C@H](c2ncc(-c3ccc(-c4cnn(CC(F)(F)F)c4)cc3S(=O)(=O)NC(C)(C)C)s2)CC1 [Compound 4, isopropyl (trans-4-(5-(2-(N-(tert-butyl)sulfamoyl)-4-(1-(2,2,2-trifluoroethyl)-1H-pyrazol-4-yl)phenyl)thiazol-2-yl)cyclohexyl)carbamate] | 100 to 1000 nM |
| CCNS(=O)(=O)c1cc(Nc2cccnn2)ccc1-c1cnc([C@H]2CC[C@H](NC(=O)OC(C)C)CC2)s1 [Compound 123, isopropyl trans-N-[4-[5-[2-(ethylsulfamoyl)-4-[(pyridazin-3-yl)amino]phenyl]thiazol-2-yl]cyclohexyl]carbamate] | < 100 nM |
| CCNS(=O)(=O)c1cc(CC(=O)N(C)C(C)C)ccc1-c1cnc([C@H]2CC[C@H](NC(=O)OC(C)C)CC2)s1 [Compound 80, isopropyl trans-N-[4-[5-[4-[2-(isopropyl(methyl)amino)-2-oxo-ethyl]-2-(ethyl-sulfamoyl)phenyl]thiazol-2-yl]cyclohexyl]carbamate] | 100 to 1000 nM |
| CC(C)OC(=O)N[C@H]1CC[C@H](c2ncc(-c3ccc(Nc4ncc[nH]4)cc3S(=O)(=O)N3CCC3)s2)CC1 [Compound 148, isopropyl trans-N-[4-[5-[2-(azetidin-1-ylsulfonyl)-4-(1H-imidazol-2-ylamino)phenyl]thiazol-2-yl]cyclohexyl]carbamate] | < 100 nM |
| CCNS(=O)(=O)c1cc(Nc2nnc(C(C)C)s2)ccc1-c1cnc(C2CCC(NC(=O)OC(C)C)CC2)s1 (stereo not drawn) [Compound 115, isopropyl trans-N-[4-[5-[2-(ethylsulfamoyl)-4-[(5-isopropyl-1,3,4-thiadiazol-2-y)amino]phenyl]thiazol-2-yl]cyclohexyl]carbamate] | < 100 nM |
| CCNS(=O)(=O)c1cc(Nc2nccn2C)ccc1-c1cnc([C@H]2CC[C@@H](NC(=O)OC(C)C)CC2)s1 [Compound 106, isopropyl cis-N-[4-[5-[2-(ethylsulfamoyl)-4-[(1-methylimidazol-2-yl)amino]phenyl]thiazol-2-yl]cyclohexyl]carbamate] | < 100 nM |
| CCNS(=O)(=O)c1cc(Nc2cccc(C(C)C)n2)ccc1-c1cnc([C@H]2CC[C@H](NC(=O)OC(C)C)CC2)s1 [Compound 112, isopropyl trans-N-[4-[5-[2-(ethylsulfamoyl)-4-[(6-isopropyl-2-pyridyl)amino]phenyl]thiazol-2-yl]cyclohexyl]carbamate] | < 100 nM |
| CC(C)OC(=O)N[C@H]1CC[C@H](c2ncc(-c3ccc(-c4cnc(N)nc4)cc3S(=O)(=O)NC(C)(C)C)s2)CC1 [Compound 10, isopropyl (trans-4-(5-(4-(2-aminopyrimidin-5-yl)-2-(N-(tert-butyl)sulfamoyl)phenyl)thiazol-2-yl)cyclohexyl)carbamate] | 100 to 1000 nM |
| CCNS(=O)(=O)c1cc(CC(=O)NC(C)C)ccc1-c1cnc([C@H]2CC[C@H](NC(=O)OC(C)C)CC2)s1 [Compound 58, isopropyl trans-N-[4-[5-[2-(ethylsulfamoyl)-4-[2-(isopropylamino)-2-oxo-ethyl]phenyl]thiazol-2-yl]cyclohexyl]carbamate] | 100 to 1000 nM |
| CCNS(=O)(=O)c1cc(Nc2ccc(=O)[nH]n2)ccc1-c1cnc([C@H]2CC[C@H](NC(=O)OC(C)C)CC2)s1 [Compound 160, isopropyl trans-N-[4-[5-[2-(ethylsulfamoyl)-4-[(6-oxo-1H-pyridazin-3-yl)amino]phenyl]thiazol-2-yl]cyclohexyl]carbamate] | 100 to 1000 nM |
| CC(C)OC(=O)N[C@H]1CC[C@H](c2ncc(-c3ccc(OCCN)cc3S(=O)(=O)NC(C)(C)C)s2)CC1 [Compound 26, isopropyl (trans-4-(5-(4-(2-aminoethoxy)-2-(N-(tert-butyl)sulfamoyl)phenyl)thiazol-2-yl)cyclohexyl)carbamate] | 1000 to 10000 nM |
| CCNS(=O)(=O)c1cc(NC2(C)COC2)ccc1-c1cnc([C@H]2CC[C@H](NC(=O)OC(C)C)CC2)s1 [Compound 116, isopropyl trans-N-[4-[5-[2-(ethylsulfamoyl)-4-[(3-methyloxetan-3-yl)amino]phenyl]thiazol-2-yl]cyclohexyl]carbamate] | < 100 nM |
| CNS(=O)(=O)c1ccccc1-c1cnc([C@H]2CC[C@H](NC(=O)OC(C)C)CC2)s1 [Compound 93, isopropyl trans-N-[4-[5-(2-methylsulfamoylphenyl)thiazol-2-yl]cyclohexyl]carbamate] | 1000 to 10000 nM |
